Data: PubChem BioAssay AID1963986 (Molecular Pharmacology Branch, DTP, NCI, 2024)

Test system: 171881-019-R-J1-PDC tumor spheroid viability
Test: Anticancer human tumor 171881-019-R-J1-PDC patient-derived invasive breast carcinoma cell line growth inhibition [PI3K]
Details: spheroids with HUVEC and MSC; for IC50: curve of first compound; for viability, T/C: stronger effect = lower value; active = viability on the fitted dose curve at most 10% of control; inactive = the rest
Summary of the method: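 High-throughput combination screen: PI3K inhibitors crossed with targeted small molecules on complex spheroids of tumor cells, HUVEC and MSCs at 37 degrees C, 5% CO2. Top concentration was at or near clinical Cmax (otherwise 10 microM), with half-log decrements.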

[1] = second compound 0.0316 µM, first compound 0.0316 µM
[2] = second compound 0.0316 µM, first compound 0.1 µM
[3] = second compound 0.0316 µM, first compound 0.316 µM
[4] = second compound 0.0316 µM, first compound 1 µM
[5] = second compound 0.0316 µM, first compound 3.16 µM
[6] = second compound 0.0316 µM, first compound 10 µM
[7] = second compound 0.1 µM, first compound 0.0316 µM
[8] = second compound 0.1 µM, first compound 0.1 µM
[9] = second compound 0.1 µM, first compound 0.316 µM
[10] = second compound 0.1 µM, first compound 1 µM
[11] = second compound 0.1 µM, first compound 3.16 µM
[12] = second compound 0.1 µM, first compound 10 µM
[13] = second compound 0.316 µM, first compound 0.0316 µM
[14] = second compound 0.316 µM, first compound 0.1 µM
[15] = second compound 0.316 µM, first compound 0.316 µM
[16] = second compound 0.316 µM, first compound 1 µM
[17] = second compound 0.316 µM, first compound 3.16 µM
[18] = second compound 0.316 µM, first compound 10 µM
[19] = second compound 1 µM, first compound 0.0316 µM
[20] = second compound 1 µM, first compound 0.1 µM
[21] = second compound 1 µM, first compound 0.316 µM
[22] = second compound 1 µM, first compound 1 µM
[23] = second compound 1 µM, first compound 3.16 µM
[24] = second compound 1 µM, first compound 10 µM
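Also: spheroids exposed to compound for 7 days before viability read.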
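For viability, T/C in this document: 100% = DMSO vehicle-treated spheroids.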

CCCS(=O)(=O)Nc1ccc(F)c(C(=O)c2c[nH]c3ncc(-c4ccc(Cl)cc4)cc23)c1F + CC(Nc1ncnc2nc[nH]c12)c1cc2cccc(Cl)c2c(=O)n1-c1ccccc1
inactive: viability, T/C [1] 90.8% | viability, T/C [2] 87.2% | viability, T/C [3] 97.2% | viability, T/C [4] 84.1% | viability, T/C [5] 92.3% | viability, T/C [6] 12.2% | viability, T/C [7] 98.7% | viability, T/C [8] 81.3% | viability, T/C [9] 95% | viability, T/C [10] 91.4% | viability, T/C [11] 83.3% | viability, T/C [12] 12.8% | viability, T/C [13] 87.4% | viability, T/C [14] 89.1% | viability, T/C [15] 103% | viability, T/C [16] 101% | viability, T/C [17] 83.2% | viability, T/C [18] 11.3% | viability, T/C [19] 95.1% | viability, T/C [20] 107% | viability, T/C [21] 106% | viability, T/C [22] 105% | viability, T/C [23] 97.7% | viability, T/C [24] 11.9% | viability, T/C (second compound 3.16 µM, first compound 0.0316 µM) 90.9% | viability, T/C (second compound 3.16 µM, first compound 0.1 µM) 97% | viability, T/C (second compound 3.16 µM, first compound 0.316 µM) 104% | viability, T/C (second compound 3.16 µM, first compound 1 µM) 121% | viability, T/C (second compound 3.16 µM, first compound 3.16 µM) 103% | viability, T/C (second compound 10 µM, first compound 0.0316 µM) 67.8% | viability, T/C (second compound 10 µM, first compound 0.1 µM) 70.7% | viability, T/C (second compound 10 µM, first compound 0.316 µM) 77.2% | viability, T/C (second compound 10 µM, first compound 1 µM) 90.8% | viability, T/C (second compound 10 µM, first compound 3.16 µM) 82.2%
5.45 µM: IC50 (second compound 0.1 µM)
6 µM: IC50 (second compound 1 µM)
5.73 µM: IC50 (second compound 0.0316 µM)
5.38 µM: IC50 (second compound 0.316 µM)
active: viability, T/C (second compound 3.16 µM, first compound 10 µM) 9.5% | viability, T/C (second compound 10 µM, first compound 10 µM) 6.77%
6.06 µM: IC50 (second compound 3.16 µM)
4.95 µM: IC50 (second compound 10 µM)

CC1(C)CCC(CN2CCN(c3ccc(C(=O)NS(=O)(=O)c4ccc(NCC5CCOCC5)c([N+](=O)[O-])c4)c(Oc4cnc5[nH]ccc5c4)c3)CC2)=C(c2ccc(Cl)cc2)C1 + CC(Nc1ccc2c(c1)OCCn1cc(N3C(=O)OCC3C(F)F)nc1-2)C(N)=O
3.73 µM: IC50 (second compound 0.00316 µM)
1.59 µM: IC50 (second compound 0.0316 µM)
inactive: viability, T/C (second compound 0.00316 µM, first compound 0.0316 µM) 83% | viability, T/C (second compound 0.00316 µM, first compound 0.1 µM) 73.7% | viability, T/C (second compound 0.00316 µM, first compound 0.316 µM) 91.5% | viability, T/C (second compound 0.00316 µM, first compound 1 µM) 88.1% | viability, T/C (second compound 0.00316 µM, first compound 3.16 µM) 55.9% | viability, T/C (second compound 0.00316 µM, first compound 10 µM) 15% | viability, T/C (second compound 0.01 µM, first compound 0.0316 µM) 79.2% | viability, T/C (second compound 0.01 µM, first compound 0.1 µM) 87.3% | viability, T/C (second compound 0.01 µM, first compound 0.316 µM) 76.8% | viability, T/C (second compound 0.01 µM, first compound 1 µM) 72.5% | viability, T/C (second compound 0.01 µM, first compound 3.16 µM) 46.5% | viability, T/C (second compound 0.01 µM, first compound 10 µM) 13.9% | viability, T/C [1] 55.9% | viability, T/C [2] 56.8% | viability, T/C [3] 61.6% | viability, T/C [4] 55.3% | viability, T/C [5] 41.2% | viability, T/C [6] 10.3% | viability, T/C [7] 41.6% | viability, T/C [8] 41.2% | viability, T/C [9] 40.6% | viability, T/C [10] 43.4% | viability, T/C [11] 36.5% | viability, T/C [12] 7.86% | viability, T/C [13] 28.6% | viability, T/C [14] 27.1% | viability, T/C [15] 28.5% | viability, T/C [16] 28.3% | viability, T/C [17] 29.5% | viability, T/C [18] 5% | viability, T/C [19] 20.9% | viability, T/C [20] 20.9% | viability, T/C [21] 22% | viability, T/C [22] 23.4% | viability, T/C [23] 22% | viability, T/C [24] 6.08%
2.72 µM: IC50 (second compound 0.01 µM)
< 0.0316 µM: IC50 (second compound 0.1 µM) | IC50 (second compound 0.316 µM) | IC50 (second compound 1 µM)
